Assay results reported in US9255090B2, “Heterocyclyl derivatives and their use as prostaglandin D2 receptor modulators” (Actelion Pharmaceuticals Ltd., priority 2012, dated 2016).

Molecular target: hCRTH2 receptor (Homo sapiens (Human), UniProt Q9Y5Y4)
Assay: hCRTH2 receptor membranes radioligand (3H-PGD2) displacement assay
Type: binding
Conditions: 3H-PGD2 radioligand displacement, HEK293-hCRTH2 membranes
In short: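 Compound was first mixed with buffer, then 3H-PGD2 was added at 2.5 nM, and the reaction was started with hCRTH2 membranes from HEK293 cells at 20 μg/well. After 90 min at room temperature, mixtures were filtered and washed with ice-cold buffer, and retained radioactivity was counted.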

Chain of hCRTH2 receptor (Q9Y5Y4 whole entry): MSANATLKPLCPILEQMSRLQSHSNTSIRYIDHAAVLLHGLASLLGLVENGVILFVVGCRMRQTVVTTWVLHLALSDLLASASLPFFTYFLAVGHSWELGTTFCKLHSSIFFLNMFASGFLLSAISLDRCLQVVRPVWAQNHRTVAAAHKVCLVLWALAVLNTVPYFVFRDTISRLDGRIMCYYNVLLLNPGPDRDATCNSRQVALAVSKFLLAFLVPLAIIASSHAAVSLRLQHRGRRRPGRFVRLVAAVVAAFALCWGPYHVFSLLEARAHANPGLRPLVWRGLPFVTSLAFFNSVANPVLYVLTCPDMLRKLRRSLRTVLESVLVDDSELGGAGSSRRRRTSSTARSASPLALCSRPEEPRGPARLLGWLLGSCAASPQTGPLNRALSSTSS

SMILES | IC50 [nM]
COc1ccc(CC(=O)O)cc1-c1ccc(F)c2c1CN(C(=O)CC1CCCCC1)CC2 [Example 127, {3-[2-(2-Cyclohexyl-acetyl)-5-fluoro-1,2,3,4-tetrahydro-isoquinolin-8-yl]-4-methoxy-phenyl}-acetic acid] | 176
COc1ccc(CC(=O)O)cc1-c1ccc(F)c2c1CN(C(=O)CC1(O)CCCCC1)CC2 [Example 128, (3-{5-Fluoro-2-[2-(1-hydroxy-cyclohexyl)-acetyl]-1,2,3,4-tetrahydro-isoquinolin-8-yl}-4-methoxy-phenyl)-acetic acid] | 538
COc1ccc(CC(=O)O)cc1-c1ccc(F)c2c1CN(C(=O)CC(C)(C)C)CC2 [Example 129, {3-[2-(3,3-Dimethyl-butyryl)-5-fluoro-1,2,3,4-tetrahydro-isoquinolin-8-yl]-4-methoxy-phenyl}-acetic acid] | 913
COc1ccc(CC(=O)O)cc1-c1ccc(F)c2c1CN(C(=O)NCc1cccc(F)c1)CC2 [Example 131, {3-[5-Fluoro-2-(3-fluoro-benzylcarbamoyl)-1,2,3,4-tetrahydro-isoquinolin-8-yl]-4-methoxy-phenyl}-acetic acid] | 60.1
CCCNC(=O)N1CCc2c(F)ccc(-c3cc(CC(=O)O)ccc3OC)c2C1 [Example 137, [3-(5-Fluoro-2-propylcarbamoyl-1,2,3,4-tetrahydro-isoquinolin-8-yl)-4-methoxy-phenyl]-acetic acid] | 764
CCOC(=O)N1CCc2c(F)ccc(-c3cc(CC(=O)O)ccc3OC)c2C1 [Example 141, 8-(5-Carboxymethyl-2-methoxy-phenyl)-5-fluoro-3,4-dihydro-1H-isoquinoline-2-carboxylic acid ethyl ester] | 187
COc1ccc(CC(=O)O)cc1-c1ccc(F)c2c1CN(C(=O)OCC(C)C)CC2 [Example 142, 8-(5-Carboxymethyl-2-methoxy-phenyl)-5-fluoro-3,4-dihydro-1H-isoquinoline-2-carboxylic acid isobutyl ester] | 148
COc1ccc(CC(=O)O)cc1-c1ccc(F)c2c1CN(C(=O)OC(C)C)CC2 [Example 143, 8-(5-Carboxymethyl-2-methoxy-phenyl)-5-fluoro-3,4-dihydro-1H-isoquinoline-2-carboxylic acid isopropyl ester] | 348
O=C(O)COc1cc(Cl)cc(-c2ccc(F)c3c2CN(C(=O)OCc2ccccc2)CC3)c1 [Example 144, 8-(3-Carboxymethoxy-5-chloro-phenyl)-5-fluoro-3,4-dihydro-1H-isoquinoline-2-carboxylic acid benzyl ester] | 86.2
O=C(O)COc1ccc(Cl)cc1-c1ccc(F)c2c1CN(C(=O)OCc1ccccc1)CC2 [Example 145, 8-(2-Carboxymethoxy-5-chloro-phenyl)-5-fluoro-3,4-dihydro-1H-isoquinoline-2-carboxylic acid benzyl ester] | 430
COc1ccc(CC(=O)O)cc1-c1ccc(F)c2c1CN(C(=O)OCc1ccnn1C)CC2 [Example 148, 8-(5-Carboxymethyl-2-methoxy-phenyl)-5-fluoro-3,4-dihydro-1H-isoquinoline-2-carboxylic acid 2-methyl-2H-pyrazol-3-ylmethyl ester] | 51.6
COc1ccc(CC(=O)O)cc1-c1ccc(OC)c2c1CN(C(=O)OCc1ccccc1)CC2 [Example 156, 8-(5-Carboxymethyl-2-methoxy-phenyl)-5-methoxy-3,4-dihydro-1H-isoquinoline-2-carboxylic acid benzyl ester] | 251

The next compounds have a lower IC50 than those just listed; values first:

IC50 [nM] | SMILES
10.5 | COc1ccc(CC(=O)O)cc1-c1ccc(F)c2c1CN(C(=O)Cc1n[nH]c3ccccc13)CC2 [Example 124, {3-[5-Fluoro-2-(2-1H-indazol-3-yl-acetyl)-1,2,3,4-tetrahydro-isoquinolin-8-yl]-4-methoxy-phenyl}-acetic acid]
9.54 | COc1ccc(CC(=O)O)cc1-c1ccc(F)c2c1CN(C(=O)CCn1ncc3cc(F)ccc31)CC2 [Example 126, (3-{5-Fluoro-2-[3-(5-fluoro-indazol-1-yl)-propionyl]-1,2,3,4-tetrahydro-isoquinolin-8-yl}-4-methoxy-phenyl)-acetic acid]
17.7 | COc1ccc(CC(=O)O)cc1-c1ccc(F)c2c1CN(C(=O)NCc1ccccc1F)CC2 [Example 130, {3-[5-Fluoro-2-(2-fluoro-benzylcarbamoyl)-1,2,3,4-tetrahydro-isoquinolin-8-yl]-4-methoxy-phenyl}-acetic acid]
13 | COc1ccc(CC(=O)O)cc1-c1ccc(F)c2c1CN(C(=O)NCCc1ccccc1)CC2 [Example 133, [3-(5-Fluoro-2-phenethylcarbamoyl-1,2,3,4-tetrahydro-isoquinolin-8-yl)-4-methoxy-phenyl]-acetic acid]
21.5 | COc1ccc(CC(=O)O)cc1-c1ccc(F)c2c1CN(C(=O)NCc1ccccc1Cl)CC2 [Example 134, {3-[2-(2-Chloro-benzylcarbamoyl)-5-fluoro-1,2,3,4-tetrahydro-isoquinolin-8-yl]-4-methoxy-phenyl}-acetic acid]
19.6 | COc1ccccc1CNC(=O)N1CCc2c(F)ccc(-c3cc(CC(=O)O)ccc3OC)c2C1 [Example 135, {3-[5-Fluoro-2-(2-methoxy-benzylcarbamoyl)-1,2,3,4-tetrahydro-isoquinolin-8-yl]-4-methoxy-phenyl}-acetic acid]
30.6 | COc1ccc(CC(=O)O)cc1-c1ccc(F)c2c1CN(C(=O)NCc1ccccc1)CC2 [Example 136, [3-(2-Benzylcarbamoyl-5-fluoro-1,2,3,4-tetrahydro-isoquinolin-8-yl)-4-methoxy-phenyl]-acetic acid]
6.87 | COc1ccc(CC(=O)O)cc1-c1ccc(F)c2c1CN(C(=O)OCc1cc(C)nn1C)CC2 [Example 149, 8-(5-Carboxymethyl-2-methoxy-phenyl)-5-fluoro-3,4-dihydro-1H-isoquinoline-2-carboxylic acid 2,5-dimethyl-2H-pyrazol-3-ylmethyl ester]
7.12 | COc1ccc(CC(=O)O)cc1-c1ccc(F)c2c1CN(C(=O)OCc1csc(C)n1)CC2 [Example 150, 8-(5-Carboxymethyl-2-methoxy-phenyl)-5-fluoro-3,4-dihydro-1H-isoquinoline-2-carboxylic acid 2-methyl-thiazol-4-ylmethyl ester]
5.73 | COc1ccc(CC(=O)O)cc1-c1ccc(F)c2c1CN(C(=O)OCc1cnc(C)s1)CC2 [Example 151, 8-(5-Carboxymethyl-2-methoxy-phenyl)-5-fluoro-3,4-dihydro-1H-isoquinoline-2-carboxylic acid 2-methyl-thiazol-5-ylmethyl ester]
34.1 | COc1ccc(CC(=O)O)cc1-c1ccc(F)c2c1CN(C(=O)OCc1cncnc1)CC2 [Example 152, 8-(5-Carboxymethyl-2-methoxy-phenyl)-5-fluoro-3,4-dihydro-1H-isoquinoline-2-carboxylic acid pyrimidin-5-ylmethyl ester]
40.7 | COc1ccc(CC(=O)O)cc1-c1ccc(F)c2c1CN(C(=O)OCCc1scnc1C)CC2 [Example 153, 8-(5-Carboxymethyl-2-methoxy-phenyl)-5-fluoro-3,4-dihydro-1H-isoquinoline-2-carboxylic acid 2-(4-methyl-thiazol-5-yl)-ethyl ester]
46.8 | COc1ccc(CC(=O)O)cc1-c1ccc(C)c2c1CN(C(=O)OCc1ccccc1)CC2 [Example 155, 8-(5-Carboxymethyl-2-methoxy-phenyl)-5-methyl-3,4-dihydro-1H-isoquinoline-2-carboxylic acid benzyl ester]
